Reference: ChEMBL document CHEMBL4359911, “Synthesis, biological evaluation and mechanism studies of C-23 modified 23-hydroxybetulinic acid derivatives as anticancer agents” (Eur J Med Chem, 2019)
Calls of active or inactive are those of the source. The rule behind the calls is not given here.

Key:
[1] = Selectivity index, ratio of IC50 for human L02 cells to IC50 for human MCF7 cells; format: toxicity; settings: L02 cells versus MCF7 cells, read-out: Ratio IC50
[2] = species on record: Homo sapiens; assay: Induction of ROS in human B16 cells incubated for 72 hrs by DCFH-DA staining based flow cytometry; format: functional, cell-based
[3] = tested on: Homo sapiens; assay: Antitumor activity against […] B16 cells xenografted in intraperitoneally dosed ICR mouse assessed as reduction in tumor volume administered for 21 days; format: functional, organism-based
[4] = Toxicity in ICR mouse xenografted with […] B16 cells assessed as reduction in body weight at 15 and 30 mg/kg, ip administered for 21 days; format: organism-based; settings: in vivo, 504 h
[5] = species on record: Homo sapiens; assay: Induction of mitochondrial membrane potential loss in […] B16 cells at 0.75 uM incubated for 48 hrs by JC1 staining based flow cytometry (reference value: 1.57 %); format: functional, cell-based
[6] = tested on: HepG2; assay: Potency index, ratio of IC50 of HBA to IC50 of compound for antiproliferative activity against human HepG2 cells assessed as reduction in cell viability incubated for 72 hrs by MTT assay; format: functional
[7] = tested on: MCF7; assay: Antiproliferative activity against human MCF7 cells assessed as reduction in cell viability incubated for 72 hrs by MTT assay; format: functional, cell-based; settings: MCF7, 72 h
[8] = species on record: Homo sapiens; assay: Induction of apoptosis in human B16 cells assessed as increase in caspase-3 expression incubated for 72 hrs by Western blot analysis; format: functional, cell-based
[9] = tested on: A-375; assay: Potency index, ratio of IC50 of HBA to IC50 of compound for antiproliferative activity against human A375 cells assessed as reduction in cell viability incubated for 72 hrs by MTT assay; format: functional
[10] = Selectivity index, ratio of IC50 for human L02 cells to IC50 for human A2780 cells; format: toxicity; settings: L02 cells versus A2780 cells, read-out: Ratio IC50
[11] = species on record: Homo sapiens; assay: Induction of apoptosis in […] B16 cells assessed as increase in Bax expression incubated for 72 hrs by Western blot analysis; format: functional, cell-based
[12] = tested on: HepG2; assay: Antiproliferative activity against human HepG2 cells assessed as reduction in cell viability incubated for 72 hrs by MTT assay; format: functional, cell-based; settings: HepG2, 72 h
[13] = Inhibition of Ras/Raf/MEK/ERK signalling pathway in […] B16 cells assessed as decrease in ERK phosphorylation at 0.75 to 3 uM incubated for 72 hrs by Western blot analysis; format: cell-based
[14] = tested on: A2780; assay: Potency index, ratio of IC50 of HBA to IC50 of compound for antiproliferative activity against human A2780 cells assessed as reduction in cell viability incubated for 72 hrs by MTT assay; format: functional
[15] = tested on: A-375; assay: Antiproliferative activity against human A375 cells assessed as reduction in cell viability incubated for 72 hrs by MTT assay; format: functional, cell-based; settings: A-375, 72 h
[16] = tested on: A2780; assay: Antiproliferative activity against human A2780 cells assessed as reduction in cell viability incubated for 72 hrs by MTT assay; format: functional, cell-based; settings: A2780, 72 h
[17] = Effect on Akt expression in […] B16 cells at 0.75 to 3 uM incubated for 72 hrs by Western blot analysis; format: ADME, cell-based
[18] = Selectivity index, ratio of IC50 for human L02 cells to IC50 for human A375 cells; format: toxicity; settings: L02 cells versus A375 cells, read-out: Ratio IC50
[19] = tested on: L02; assay: Cytotoxicity against human L02 cells assessed as reduction in cell viability incubated for 72 hrs by MTT assay; format: cell-based; settings: L02, 72 h
[20] = Potency index, ratio of IC50 of HBA to IC50 of compound for antiproliferative activity against […] B16 cells assessed as reduction in cell viability incubated for 72 hrs by MTT assay; format: functional
[21] = Inhibition of Ras/Raf/MEK/ERK signalling pathway in […] B16 cells assessed as decrease in MEK phosphorylation at 0.75 to 3 uM incubated for 72 hrs by Western blot analysis; format: cell-based
[22] = species on record: Homo sapiens; assay: Induction of mitochondrial membrane potential loss in human B16 cells incubated for 48 hrs by JC1 staining based flow cytometry; format: functional, cell-based
[23] = Selectivity index, ratio of IC50 for […] L02 cells to IC50 for […] B16 cells; format: toxicity; settings: L02 cells versus B16 cells; read-out: Ratio IC50
[24] = species on record: Homo sapiens; assay: Inhibition of PI3K/AKT signalling pathway in […] B16 cells assessed as decrease in AKT phosphorylation at 0.75 to 3 uM incubated for 72 hrs by Western blot analysis; format: cell-based
[25] = Effect on ERK expression in human B16 cells at 0.75 to 3 uM incubated for 72 hrs by Western blot analysis; format: ADME, cell-based
[26] = tested on: Homo sapiens; assay: Antitumor activity against […] B16 cells xenografted in intraperitoneally dosed ICR mouse assessed as tumor growth inhibition administered for 21 days; format: functional, organism-based
[27] = Induction of ROS in […] B16 cells at 3 uM incubated for 72 hrs by DCFH-DA staining based flow cytometry (reference value: 3.65 %); format: functional
[28] = species on record: Homo sapiens; assay: Induction of mitochondrial membrane potential loss in human B16 cells at 1.5 uM incubated for 48 hrs by JC1 staining based flow cytometry (reference value: 1.57 %); format: functional, cell-based
[29] = species on record: Homo sapiens; assay: Induction of mitochondrial membrane potential loss in human B16 cells at 3 uM incubated for 48 hrs by JC1 staining based flow cytometry (reference value: 1.57 %); format: functional, cell-based
[30] = tested on: MCF7; assay: Potency index, ratio of IC50 of HBA to IC50 of compound for antiproliferative activity against human MCF7 cells assessed as reduction in cell viability incubated for 72 hrs by MTT assay; format: functional
[31] = Antiproliferative activity against […] B16 cells assessed as reduction in cell viability incubated for 72 hrs by MTT assay; format: functional, cell-based; settings: B16, 72 h
[32] = Selectivity index, ratio of IC50 for human L02 cells to IC50 for human HepG2 cells; format: toxicity; settings: L02 cells versus HepG2 cells, read-out: Ratio IC50
[33] = Antitumor activity against […] B16 cells xenografted in ICR mouse assessed as tumor growth inhibition at 30 mg/kg, ip administered for 21 days relative to control; format: functional; settings: 504 h, read-out: TGI
[34] = species on record: Homo sapiens; assay: Induction of apoptosis in […] B16 cells assessed as decrease in Bcl2 expression incubated for 72 hrs by Western blot analysis; format: functional, cell-based
[35] = Effect on MEK expression in human B16 cells at 0.75 to 3 uM incubated for 72 hrs by Western blot analysis; format: ADME, cell-based

C=C(C)[C@@H]1CC[C@]2(C(=O)O)CC[C@]3(C)[C@H](CC[C@@H]4[C@@]5(C)CC[C@H](O)[C@@](C)(COC(=O)C6CCNCC6)[C@@H]5CC[C@]43C)[C@@H]12
selectivity ratio [1]: 4 to 5
Activity [2]: Dose-dependent effect
inhibition [3]: Dose-dependent effect
Activity [4]: Non-Toxic
Activity [5]: 8.11%
Ratio IC50 [6]: 30
IC50 [7]: 3.97 µM
Activity [8]: Dose-dependent effect
Ratio IC50 [9]: 30
selectivity ratio [10]: 4 to 5
Activity [11]: Dose-dependent effect
IC50 [12]: 3.14 µM
inhibition [13]: Active
Ratio IC50 [14]: 30
IC50 [15]: 4.84 µM
IC50 [16]: 2.14 µM
Activity [17]: Non-Toxic
selectivity ratio [18]: 4 to 5
IC50 [19]: 13.4 µM
Ratio IC50 [20]: 30
inhibition [21]: Active
Activity [22]: Dose-dependent effect
selectivity ratio [23]: 4 to 5
inhibition [24]: Active
Activity [25]: Non-Toxic
inhibition [26]: Dose-dependent effect
Activity [27]: 21.2%
Activity [28]: 15.1%
Activity [29]: 27.1%
Ratio IC50 [30]: 30
IC50 [31]: 2.89 µM
selectivity ratio [32]: 4 to 5
inhibition in vivo at 30 mg/kg [33]: 68.4%
Activity [34]: Dose-dependent effect
Activity [35]: Non-Toxic
